From ChEMBL document CHEMBL4483862, “Open-source discovery of chemical leads for next-generation chemoprotective antimalarials” (2018)

System: Plasmodium berghei
Test: Luciferase/luciferin-expressing antifolate-resistant parasites were used to infect a culture of HepG2 cells that were pre-incubated with compounds. Infected hepatocytes emit light due to the luciferase reaction. Assay results are presented as the percent inhibition of light emission compared to control. […]
Format: functional
Details: sporozoite; for IC90: read-out: LUCIFERASE INFECTION ASSAY - IC90

COc1ccc(C(N)=O)c(OCC(=O)c2cc(C)n(Cc3ccccc3)c2C)c1
IC50 (HEPG2TOX_HILL_SLOPE 1.79, HEPG2TOX_R_SQUARED 0.962, PBLUC_HILL_SLOPE 4.42, PBLUC_R_SQUARED 0.333, read-out: LUCIFERASE INFECTION ASSAY - IC50): 5.78 µM
IC90: 9.51 µM

Cc1ccc(-c2nc3cc(Br)cnc3nc2-c2ccc(C)cc2)cc1
IC50 (HEPG2TOX_HILL_SLOPE 1.79, HEPG2TOX_R_SQUARED 0.907, PBLUC_HILL_SLOPE 4.08, PBLUC_R_SQUARED 0.409, read-out: LUCIFERASE INFECTION ASSAY - IC50): 4 µM
IC90: 6.85 µM

NC(=S)N/N=C/c1ncc(C(F)(F)F)cc1Cl
IC50 (HEPG2TOX_HILL_SLOPE 1.78, HEPG2TOX_R_SQUARED 0.942, PBLUC_HILL_SLOPE 40.1, PBLUC_R_SQUARED 0.426, read-out: LUCIFERASE INFECTION ASSAY - IC50): 3.85 µM
IC90: 4.07 µM

Cc1ccnc(NC(c2ccccn2)c2ccc3ccc(C)nc3c2O)c1 (configuration not stated)
IC50 (HEPG2TOX_HILL_SLOPE 1.81, HEPG2TOX_R_SQUARED 0.956, PBLUC_HILL_SLOPE 14.5, PBLUC_R_SQUARED 0.453, read-out: LUCIFERASE INFECTION ASSAY - IC50): 8.04 µM
IC90: > 9.26 µM

CC(C)Cc1ccc(C(C)NC(=O)c2ccc(CNC(N)=O)cc2)cc1 (configuration not stated)
IC50 (HEPG2TOX_HILL_SLOPE 1.82, HEPG2TOX_R_SQUARED 0.295, read-out: LUCIFERASE INFECTION ASSAY - IC50): > 10 µM
IC90: > 10 µM

COc1ccc(C(=O)C(/C=N/N)=N/Nc2ccc(C(F)(F)F)cc2)cc1
IC50 (HEPG2TOX_HILL_SLOPE 1.78, HEPG2TOX_R_SQUARED 0.947, PBLUC_HILL_SLOPE 3.28, PBLUC_R_SQUARED 0.359, read-out: LUCIFERASE INFECTION ASSAY - IC50): 4.5 µM
IC90: 8.8 µM

CN1C(=O)N(CCCc2ccncc2)C(=O)C12CCN(Cc1ccc(N3CCCC3)cc1)CC2
IC50 (HEPG2TOX_HILL_SLOPE 1.82, HEPG2TOX_R_SQUARED 0.908, PBLUC_HILL_SLOPE 12.5, PBLUC_R_SQUARED 0.321, read-out: LUCIFERASE INFECTION ASSAY - IC50): 2.5 µM
IC90: 2.98 µM

CC1S/C(=C\c2nc3ccccc3s2)NC1=O (configuration not stated)
IC50 (HEPG2TOX_HILL_SLOPE 1.83, HEPG2TOX_R_SQUARED 0.983, PBLUC_HILL_SLOPE 1.76, PBLUC_R_SQUARED 0.572, read-out: LUCIFERASE INFECTION ASSAY - IC50): 3.43 µM
IC90: > 10 µM

CC(=O)c1cccc(-c2cnc3ccc(-c4cccnc4)nn23)c1
IC50 (HEPG2TOX_HILL_SLOPE 1.81, HEPG2TOX_R_SQUARED 0.991, PBLUC_HILL_SLOPE 1.06, PBLUC_R_SQUARED 0.743, read-out: LUCIFERASE INFECTION ASSAY - IC50): 0.606 µM
IC90: 4.84 µM

Cn1c(=O)[nH]c(=O)c2ccc(C(=O)/N=c3/sccn3Cc3ccc(Cl)cc3Cl)nc21
IC50 (HEPG2TOX_HILL_SLOPE 1.78, HEPG2TOX_R_SQUARED 0.947, PBLUC_HILL_SLOPE 2.11, PBLUC_R_SQUARED 0.878, read-out: LUCIFERASE INFECTION ASSAY - IC50): 1.82 µM
IC90: 5.16 µM

O=C(O)C(CCO)Sc1nnc(Nc2ccc(Oc3ccccc3)cc2)s1 (configuration not stated)
IC50 (HEPG2TOX_HILL_SLOPE 1.82, HEPG2TOX_R_SQUARED 0.816, PBLUC_HILL_SLOPE 10.1, PBLUC_R_SQUARED 0.331, read-out: LUCIFERASE INFECTION ASSAY - IC50): 9.1 µM
IC90: > 10 µM

O=C(Nc1cc(Cl)cc(Cl)c1)c1cc(Br)ccc1O
IC50 (HEPG2TOX_HILL_SLOPE 1.83, HEPG2TOX_R_SQUARED 0.974, PBLUC_HILL_SLOPE 1.75, PBLUC_R_SQUARED 0.827, read-out: LUCIFERASE INFECTION ASSAY - IC50): 0.385 µM
IC90: 1.35 µM

CCCCNC(=O)c1c(NC(=O)C(C)Oc2ccccc2)nc2ccccn12 (configuration not stated)
IC50 (HEPG2TOX_HILL_SLOPE 1.79, HEPG2TOX_R_SQUARED 0.135, PBLUC_HILL_SLOPE 4.23, PBLUC_R_SQUARED 0.241, read-out: LUCIFERASE INFECTION ASSAY - IC50): 6.54 µM
IC90: > 8.67 µM

COc1cccc(/C=c2\s/c(=C\C(=O)C(C)(C)C)n(C)c2=O)c1OC(C)C
IC50 (HEPG2TOX_HILL_SLOPE 1.82, HEPG2TOX_R_SQUARED 0.577, PBLUC_HILL_SLOPE 1.88, PBLUC_R_SQUARED 0.501, read-out: LUCIFERASE INFECTION ASSAY - IC50): 8.5 µM
IC90: > 10 µM

O=C(C1CCC1)N1CCN(Cc2ccc(-c3ccc(Cl)cc3)s2)CC1
IC50 (HEPG2TOX_HILL_SLOPE 1.83, HEPG2TOX_R_SQUARED 0.819, PBLUC_HILL_SLOPE 1.76, PBLUC_R_SQUARED 0.701, read-out: LUCIFERASE INFECTION ASSAY - IC50): 4.2 µM
IC90: > 10 µM

Cc1nn(C)c(Cl)c1/C=N/Nc1ccc([N+](=O)[O-])cc1S(=O)(=O)Nc1ccc(Cl)cc1
IC50 (HEPG2TOX_HILL_SLOPE 1.82, HEPG2TOX_R_SQUARED 0.852, PBLUC_HILL_SLOPE 13.6, PBLUC_R_SQUARED 0.455, read-out: LUCIFERASE INFECTION ASSAY - IC50): 9.47 µM
IC90: > 10 µM

CN(C)c1ccc(-c2cnc3ccc(NCc4ccc5c(c4)OCO5)nn23)cc1
IC50 (HEPG2TOX_HILL_SLOPE 1.81, HEPG2TOX_R_SQUARED 0.969, PBLUC_HILL_SLOPE 2.01, PBLUC_R_SQUARED 0.65, read-out: LUCIFERASE INFECTION ASSAY - IC50): 1.2 µM
IC90: 3.57 µM

CC1(C(=O)NC(=S)NNc2nc3ccccc3[nH]2)CC1(Cl)Cl (configuration not stated)
IC50 (HEPG2TOX_HILL_SLOPE 1.8, HEPG2TOX_R_SQUARED 0.951, read-out: LUCIFERASE INFECTION ASSAY - IC50): > 10 µM
IC90: > 10 µM

COc1cc(OC)cc(C(=O)Nc2nc3ccc(C)cn3c2C(=O)NC2CCCCC2)c1
IC50 (HEPG2TOX_HILL_SLOPE 1.81, HEPG2TOX_R_SQUARED 0.745, PBLUC_HILL_SLOPE 12.8, PBLUC_R_SQUARED 0.53, read-out: LUCIFERASE INFECTION ASSAY - IC50): 0.872 µM
IC90: 1.03 µM

CCCCCn1c(SCC(=O)Nc2ccc(C(C)C)cc2)n[nH]c1=O
IC50 (HEPG2TOX_HILL_SLOPE 1.82, HEPG2TOX_R_SQUARED 0.814, PBLUC_HILL_SLOPE 12.7, PBLUC_R_SQUARED 0.412, read-out: LUCIFERASE INFECTION ASSAY - IC50): 2.89 µM
IC90: 3.43 µM

CC(OC(=O)c1cc([N+](=O)[O-])ccc1N(C)C)C(=O)Nc1ccc(Cl)cn1 (configuration not stated)
IC50 (HEPG2TOX_HILL_SLOPE 1.79, HEPG2TOX_R_SQUARED 0.979, PBLUC_HILL_SLOPE 1.96, PBLUC_R_SQUARED 0.845, read-out: LUCIFERASE INFECTION ASSAY - IC50): 0.596 µM
IC90: 1.83 µM

CCOc1cccc2cc(C(C)Nc3ncnc4n[nH]cc34)oc12 (configuration not stated)
IC50 (HEPG2TOX_HILL_SLOPE 1.82, HEPG2TOX_R_SQUARED 0.969, PBLUC_HILL_SLOPE 2.94, PBLUC_R_SQUARED 0.376, read-out: LUCIFERASE INFECTION ASSAY - IC50): 3.07 µM
IC90: 6.49 µM

CCOC(=O)c1c(NC(=O)CSc2ncnc3scc(-c4ccc(OC)cc4)c23)sc2c1CCCC2
IC50 (HEPG2TOX_HILL_SLOPE 1.83, HEPG2TOX_R_SQUARED 0.223, read-out: LUCIFERASE INFECTION ASSAY - IC50): > 10 µM
IC90: > 10 µM

CN1C(=O)N(CCCc2ccncc2)C(=O)C12CCN(Cc1cc3ccccc3[nH]1)CC2
IC50 (HEPG2TOX_HILL_SLOPE 1.79, HEPG2TOX_R_SQUARED 0.954, PBLUC_HILL_SLOPE 8.39, PBLUC_R_SQUARED 0.134, read-out: LUCIFERASE INFECTION ASSAY - IC50): 6.78 µM
IC90: > 7.65 µM

N#Cc1ccccc1Sc1ccccc1C(=O)OCc1cc(=O)oc2cc(Br)ccc12
IC50 (HEPG2TOX_HILL_SLOPE 1.78, HEPG2TOX_R_SQUARED 0.958, PBLUC_HILL_SLOPE 3.89, PBLUC_R_SQUARED 0.0824, read-out: LUCIFERASE INFECTION ASSAY - IC50): 9.13 µM
IC90: > 10 µM

NC(=O)c1c(NC(=O)N2CCC(Cc3ccccc3)CC2)sc2c1CCC2
IC50 (HEPG2TOX_HILL_SLOPE 1.79, HEPG2TOX_R_SQUARED 0.702, PBLUC_HILL_SLOPE 1.44, PBLUC_R_SQUARED 0.101, read-out: LUCIFERASE INFECTION ASSAY - IC50): 3.57 µM
IC90: > 8.6 µM

O=C(Nc1nc2ccccc2n1C1CCCCC1)c1ccoc1
IC50 (HEPG2TOX_HILL_SLOPE 1.84, HEPG2TOX_R_SQUARED 0.834, PBLUC_HILL_SLOPE 10.1, PBLUC_R_SQUARED 0.2, read-out: LUCIFERASE INFECTION ASSAY - IC50): 3.75 µM
IC90: 4.66 µM

COc1ccc(-c2cn(CC(=O)c3ccccc3)c3[n+]2-c2ccccc2CC3)cc1
IC50 (HEPG2TOX_HILL_SLOPE 1.82, HEPG2TOX_R_SQUARED 0.932, PBLUC_HILL_SLOPE 2.71, PBLUC_R_SQUARED 0.363, read-out: LUCIFERASE INFECTION ASSAY - IC50): 4.75 µM
IC90: > 10 µM

COc1ccc(-c2nonc2NC(=O)c2oc3cc(C)ccc3c2C)cc1OC
IC50 (HEPG2TOX_HILL_SLOPE 1.8, HEPG2TOX_R_SQUARED 0.881, PBLUC_HILL_SLOPE 18.6, PBLUC_R_SQUARED 0.206, read-out: LUCIFERASE INFECTION ASSAY - IC50): 2.77 µM
IC90: 3.11 µM

CCOC(=O)c1ccc(NC2CCCCC2)c(/N=C/c2cc(Cl)cc(Cl)c2O)c1
IC50 (HEPG2TOX_HILL_SLOPE 1.82, HEPG2TOX_R_SQUARED 0.941, PBLUC_HILL_SLOPE 4.39, PBLUC_R_SQUARED 0.446, read-out: LUCIFERASE INFECTION ASSAY - IC50): 1.45 µM
IC90: 2.39 µM

CCN(CC)c1ccc(Nc2nc(-c3c(C)nc4ncccn34)cs2)cc1
IC50 (HEPG2TOX_HILL_SLOPE 1.79, HEPG2TOX_R_SQUARED 0.957, PBLUC_HILL_SLOPE 3.27, PBLUC_R_SQUARED 0.301, read-out: LUCIFERASE INFECTION ASSAY - IC50): 3.35 µM
IC90: 6.56 µM
